Assay results from patent publication US20240301090A1, “COMPOSITIONS AND METHODS FOR TREATING A MEDICAL CONDITION” (priority 2021, published 2024).

What was measured:
αT3-1 gonadotrope cells = experiment: mCherry DNA delivery in mixed culture, FACS: αT3-1 gonadotrope cells; type: cell-based, murine; details: for delivery of DNA into the cells: GnRH-crosslinked peptides; for αT3-1 gonadotrope cells expressing mCherry: mixed 1:10 with MEFs, 1.5 hours incubation, FACS after 48 hours
Description: (§1) Following 48 hours, cell were sorted by FACS to determine the numbers of cells expressing each fluorescent protein in a quantitative manner. The mCherry expression was detected in 58% of the αT3-1 gonadotrope cells, and in 3% of the MEFs.
(§2) Transfection with delivery peptides—Mixed cell cultures, in which the gonadotropes comprise ˜10% of the cells, as in the pituitary gland, were transferred to media without FCS or antibiotics and pre-incubated for 1.5 hours prior to transfection. The DNA: peptide mix (ratio 1:5; for every 1 μg DNA [mCherry or KRAB-Sf1], 5 μg peptide was used) was incubated for 5 minutes and then added to the cells. Following 1.5 hours the media was removed and replaced with fresh complete media. Cells were collected 24-48 hours later for counting by FACS to determine specificity and efficacy of the delivery, or after 2 weeks for gene expression analysis by qPCR. Further optimization in the mixed cell cultures utilized GnRH-crosslinked Peptide2 mixed 1:10 with non-crosslinked Peptide 2 to attain maximal efficiency and targeting specificity.
(§3) To test whether the newly designed GnRH-carrier might deliver DNA specifically to GnRH receptor-expressing cells, it was first applied to αT3-1 gonadotrope cells and Egr1 mRNA levels measured as a readout for GnRHR binding. […] Following, cells were sorted and counted by FACS to determine the number of cells expressing the delivered DNA in an unbiased manner. After optimization, the number of gonadotrope cells that were transfected reached around 58%, while only 3% of MEF cells expressed the mCherry (FIG. 12B). Assuming 80% of the αT3-1 indeed express the GnRH receptor, the targeting was successful in 72.5% of the GnRH receptor-expressing cells.

GnRH receptor (GnRHR) = biological target: T1, GnRH receptor (GnRHR) (Mus musculus, UniProt Q01776); experiment: Egr1 mRNA induction as readout of GnRHR binding in αT3-1 cells; type: cell-based, murine; parameters: endogenous in cells; host or cells: αT3-1 gonadotrope cell line; details: αT3-1 gonadotrope cells
T1 sequence (Q01776 1-327): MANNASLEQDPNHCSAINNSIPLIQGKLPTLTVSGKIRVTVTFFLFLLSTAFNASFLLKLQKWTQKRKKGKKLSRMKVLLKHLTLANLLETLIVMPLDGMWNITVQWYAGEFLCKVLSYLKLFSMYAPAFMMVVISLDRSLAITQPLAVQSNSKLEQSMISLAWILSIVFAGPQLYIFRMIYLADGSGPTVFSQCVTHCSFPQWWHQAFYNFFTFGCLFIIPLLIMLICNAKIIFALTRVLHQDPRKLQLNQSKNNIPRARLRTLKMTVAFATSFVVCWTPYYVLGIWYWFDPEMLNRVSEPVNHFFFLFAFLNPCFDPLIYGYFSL
Description: as §1
RT-PCR—Real-time quantitative PCR was performed following RNA extraction (Trizol, Invitrogen followed by Zymo RNA purification kit+DNase) and reverse transcriptase (qScript cDNA synthesis kit, Quanta) using polymerase (2×qPCRBIO Fast qPCR SyGreen Blue Mix, Hi-ROX, PCR Biosystems) and the primers shown in Table 2 hereinbelow. Values were calculated using DNA standard curves and normalized to levels of Rplp0.
as §3

MEFs = experiment: mCherry DNA delivery in mixed culture, FACS: MEFs; type: cell-based; details: mixed culture with αT3-1, 1.5 hours incubation, FACS after 48 hours
Description: as §1
as §2, with “Further optimization in the mixed cell cultures utilized GnRH-crosslinked Peptide2 mixed 1:10 with non-crosslinked Peptide 2 to attain maximal efficiency and targeting specificity.” left out
To test whether the newly designed GnRH-carrier might deliver DNA specifically to GnRH receptor-expressing cells, it was first applied to αT3-1 gonadotrope cells and Egr1 mRNA levels measured as a readout for GnRHR binding. […] Following, cells were sorted and counted by FACS to determine the number of cells expressing the delivered DNA in an unbiased manner. […]

[1] = tested on: T2, Boc-Arg-Val-Arg-Arg-MCA reporter peptide substrate
T2 sequence: RVRR

LβT2 cells = experiment: DNA delivery into LβT2 cells (qPCR of GFP transcript); type: cell-based; details: CPP packaged with DNA construct
Description: FIG. 8A is a schematic representation of a MDP containing protamine as a cell penetrating peptide (CPP), a NLS sequence and C-terminal cysteine cross-linked to GnRHLys6. […] Results are shown as mean±SEM, n=3. […] In FIG. 8E, LβT2 cells were treated with the MDP at two concentrations (200 ng DNA+300 ng MDP or 1 μg DNA+1.5 μg MDP), or 200 ng DNA was transfected using Polyjet reagent (positive control). Following 72 hours, RNA was extracted, purified and treated with DNAse, and qPCR performed using primers targeting the adaptor and GFP, and then by nested PCR targeting just the GFP. Results are shown as mean±SEM, n=3.
(§4) FIG. 9A is a schematic representation of the CPP (NF51) cross-linked to GnRH using this approach and then packaged with the DNA. In FIG. 9B, LβT2 or MEF cells were treated with the NF51-DNA alone, or after its crosslinking to GnRH Lys6. PCR was carried out as in FIG. 8E. Also shown are mRNA levels in samples that lacked the reverse transcriptase (RT).
The delivery delivery proteins—the minimal delivery protein (MDP) chimeric protein (protamine and NLS, SEQ ID NO: 89) was synthesized by GL Biochem. It was crosslinked to GnRH Lys6 analog (SEQ ID NO: 9, Sigma), via the Lys^6 of the GnRH and the C-terminal Cys of the above protein using sulfo-GMBS. The crosslinked protein was dialyzed against PBS. […]

MEF cells = experiment: DNA delivery into MEF cells (qPCR of GFP transcript); type: cell-based; details: CPP packaged with DNA construct
Description: as §4
The delivery delivery proteins—the minimal delivery protein (MDP) chimeric protein (protamine and NLS, SEQ ID NO: 89) was synthesized by GL Biochem. It was crosslinked to GnRH Lys6 analog (SEQ ID NO: 9, Sigma), via the Lys^6 of the GnRH and the C-terminal Cys of the above protein using sulfo-GMBS. The crosslinked protein was dialyzed against PBS. NF51 ([stearyl-AGYLLG]-delta-[…], SEQ ID NO: 103 conjugated through Gly6 to the δ-NH2 group of ornithine 1 of SEQ ID NO: 100) was purchased commercially (Icosagen) and cross-linked to GnRH Lys6 using Traut reagent (Pierce) followed by sulfo-GMBS (Thermo Fisher). Peptide 1 comprises the same CPP sequence as NF51 with a terminal cysteine (stearyl-AGYLLG)-delta-[…]-NH2, SEQ ID NO: 103 conjugated through Gly6 to the δ-NH2 group of ornithine 1 of SEQ ID NO: 101) for direct cross-linking, and Peptide 2 contains also the PACE cleavage (stearyl-AGYLLG)-delta-[…]-NH2, SQ ID NO: 103 conjugated through Gly6 to the δ-NH2 group of ornithine 1 of SEQ ID NO: 102). […]

[2] = biological target: T3, Boc-Arg-Val-Arg-Arg-MCA reporter peptide substrate
T3 chain: RVRR

(stearyl-AGYLLG)-delta-OINLKALAALAKKILC-NH2 [Peptide 1]
delivery of DNA into the cells (αT3-1 gonadotrope cells): could deliver some DNA into the cells | Egr1 mRNA activation (GnRHR binding) (GnRH receptor (GnRHR)): also activated the receptor

(stearyl-AGYLLG)-delta-OINLKALAALAKKILRVRRC-NH2 [GnRH Lys6-Peptide 2]
delivery of DNA into the cells (αT3-1 gonadotrope cells): could deliver some DNA into the cells | successful targeting of GnRH receptor-expressing cells (αT3-1 gonadotrope cells; assuming 80% of the αT3-1 express the GnRH receptor): 72.5% | specificity of DNA delivery to gonadotropes (αT3-1 gonadotrope cells; compared with peptide without PACE4 cleavage site): much more specific to gonadotropes | αT3-1 gonadotrope cells expressing mCherry (αT3-1 gonadotrope cells): 58% | αT3-1 gonadotrope cells expressing mCherry (αT3-1 gonadotrope cells; listed as Peptide 2): around 58% | MEFs expressing mCherry (MEFs): 3% | Egr1 mRNA activation (GnRHR binding) (GnRH receptor (GnRHR)): activated Egr1 mRNA

PACE4 secreted by LβT2 gonadotrope cells (in conditioned medium)
fluorescence on cleavage of the substrate (380 nm ex/460 nm em) [1]: cutting the reporter and emitting fluorescence at a much higher level than seen in the incubation media of MEF cells

[stearyl-AGYLLG]-delta-OINLKALAALAKKIL [NF51, reference compound]
transfection of LβT2 gonadotrope cells (LβT2 cells): highly efficient | transfection of MEF cells (MEF cells): highly efficient

B1: PACE4 secreted by PANC-1 pancreatic cells (in conditioned medium) (protein)
chain: QVRSDPQALYFNDPIWSNMWYLHCGDKNSRCRSEMNVQAAWKRGYTGKNVVVTILDDGIERNHPDLAPNYDSYASYDVNGNDYDPSPRYDASNENKHGTRCAGEVAASANNSYCIVGIAYNAKIGGIRMLDGDVTDVVEAKSLGIRPNYIDIYSASWGPDDDGKTVDGPGRLAKQAFEYGIKKGRQGLGSIFVWASGNGGREGDYCSCDGYTNSIYTISVSSATENGYKPWYLEECASTLATTYSSGAFYERKIVTTDLRQRCTDGHTGTSVSAPMVAGIIALALEANSQLTWRDVQHLLVKTSRPAHLKASDWKVNGAGHKVSHFYGFGLVDAEALVVEAKKWTAVPSQHMCVAASDKRPRSIPLVQVLRTTALTSACAEHSDQRVVYLEHVVVRTSISHPRRGDLQIYLVSPSGTKSQLLAKRLLDLSNEGFTNWEFMTVHCWGEKAEGQWTLEIQDLPSQVRNPEKQGKLKEWSLILYGTAEHPYHTFSAHQSRSRMLELSAPELEPPKAALSPSQVEVPEDEEDYTAQSTPGSANILQTSVCHPECGDKGCDGPNADQCLNCVHFSLGSVKTSRKCVSVCPLGYFGDTAARRCRRCHKGCETCSSRAATQCLSCRRGFYHHQEMNTCVTLCPAGFYADESQKNCLKCHPSCKKCVDEPEKCTVCKEGFSLARGSCIPDCEPGTYFDSELIRCGECHHTCGTCVGPGREECIHCAKNFHFHDWKCVPACGEGFYPEEMPGLPHKVCRRCDENCLSCAGSSRNCSRCKTGFTQLGTSCITNHTCSNADETFCEMVKSNRLCERKLFIQFCCRTCLLAG
fluorescence on cleavage of the substrate [2]: cutting the reporter and emitting fluorescence at a much higher levels than the HEK cells
